Test systems include OVCAR-3 ovarian; A549 NSCLC; DU-145 prostate; MOLT-4 leukemia; SNB-19 CNS; SF-268 CNS; HOP-62 NSCLC; 786-0 renal; SK-MEL-2 melanoma.
Assay in all cases: NCI anticancer screen, dose series, 48 h

“And” between values parts separate entries of the source, which are not always exact repeats. Equal values may be shown once.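 All cell lines were grown in 96-well plates and treated with compound for 48 hours. GI50 marks 50% less growth. The concentration for full growth arrest is given as TGI.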

On to `NC1=CC(=O)C(=O)c2cccnc21`, for which the GI50 is 12.9 µM in the experiment on OVCAR-3 ovarian; 3.55 µM with A549 NSCLC; 4.94 µM in the experiment with DU-145 prostate; 3.15 µM in the experiment with MOLT-4 leukemia; 5.86 µM in the experiment with SNB-19 CNS; 4.81 µM in the experiment on SF-268 CNS. The GI50 in the experiment with HOP-62 NSCLC was 2.58 µM; with 786-0 renal, 14.8 µM; in the experiment with SK-MEL-2 melanoma, 3.85 µM. Also, the TGI in the experiment on OVCAR-3 ovarian was determined as 29.4 µM; in the experiment with A549 NSCLC, 15.5 µM; in the experiment on DU-145 prostate it was 16.3 µM; in the experiment on MOLT-4 leukemia, 8.41 µM; with SNB-19 CNS it was 21.6 µM; with SF-268 CNS it was 18 µM. The TGI with HOP-62 NSCLC stood at 7.15 µM; in the experiment with 786-0 renal it was 28 µM; in the experiment on SK-MEL-2 melanoma it was 15.6 µM.
As for `CCCNC(=O)c1cc2ccccc2cc1C(=O)OC`, the TGI in the experiment on OVCAR-3 ovarian, with A549 NSCLC, in the experiment with MOLT-4 leukemia, with SNB-19 CNS, in the experiment with SF-268 CNS and with HOP-62 NSCLC was greater than 100 µM each time. In addition, the TGI in the experiment with 786-0 renal and with SK-MEL-2 melanoma was greater than 100 µM throughout.
For `CC1SC2=NC3=C(c4ccccc4C3=O)C(c3ccc(Br)cc3)N2C1=O` (configuration not stated), the TGI with OVCAR-3 ovarian, in the experiment with A549 NSCLC, in the experiment on MOLT-4 leukemia, in the experiment on SNB-19 CNS, in the experiment on SF-268 CNS and in the experiment on HOP-62 NSCLC was greater than 100 µM in each case. In addition, the TGI in the experiment with 786-0 renal and with SK-MEL-2 melanoma was greater than 100 µM each time.
Take `CC[C@](O)(C(=O)O)c1cc2n(c(=O)c1CO)Cc1cc3ccccc3nc1-2`: the GI50 in the experiment on OVCAR-3 ovarian was 0.0775 µM and 0.268 µM and 0.0965 µM; in the experiment with A549 NSCLC, 0.0057 µM and < 0.0178 µM; in the experiment on DU-145 prostate, less than 0.0025 µM; with MOLT-4 leukemia, less than 0.0025 µM; in the experiment on SNB-19 CNS, 0.00337 µM and 0.02 µM; in the experiment with HOP-62 NSCLC it was 0.025 µM. Further, the GI50 in the experiment on SK-MEL-2 melanoma was 0.314 µM and 0.39 µM. Further, the TGI with OVCAR-3 ovarian is 0.323 µM and 1.18 µM and 0.866 µM; in the experiment on A549 NSCLC, 2.6 µM and 1.48 µM and 0.42 µM; in the experiment with DU-145 prostate, 0.559 µM and 0.417 µM; in the experiment with 786-0 renal, 0.0525 µM; with SK-MEL-2 melanoma it was 1.7 µM and 1.46 µM and 0.699 µM.
In the case of `COc1cc(Nc2ncc3c(n2)-c2ccc(Cl)cc2C(c2c(F)cccc2OC)=NC3)ccc1C(=O)O`, the GI50 in the experiment with OVCAR-3 ovarian is 7.33 µM; in the experiment with A549 NSCLC it was 0.505 µM; in the experiment on DU-145 prostate it was 17.6 µM; in the experiment with MOLT-4 leukemia, 8.09 µM; in the experiment on SNB-19 CNS it was 13.3 µM; in the experiment on SF-268 CNS it was 9.51 µM. Further, the GI50 is 5.08 µM in the experiment on HOP-62 NSCLC, 4.4 µM in the experiment with 786-0 renal and 13.4 µM in the experiment with SK-MEL-2 melanoma. Besides, the TGI with OVCAR-3 ovarian is 34.4 µM; with A549 NSCLC, 37.8 µM; in the experiment on DU-145 prostate, greater than 87.5 µM; with MOLT-4 leukemia it was greater than 75.9 µM; in the experiment with SNB-19 CNS it was greater than 100 µM; in the experiment on SF-268 CNS, 92.8 µM. The TGI in the experiment on HOP-62 NSCLC is 58.5 µM; in the experiment on 786-0 renal, greater than 83.6 µM; with SK-MEL-2 melanoma it was 38 µM.
`O=C1Cc2ccccc2N1/N=C\c1ccc(O)cc1`: the TGI with OVCAR-3 ovarian, in the experiment on A549 NSCLC, with MOLT-4 leukemia, in the experiment with SNB-19 CNS, in the experiment with SF-268 CNS and in the experiment with HOP-62 NSCLC was greater than 100 µM in each case. Besides, the TGI with 786-0 renal and in the experiment with SK-MEL-2 melanoma was greater than 100 µM each time.
`Cc1cc(N(CCCNc2ccnc3cc(Cl)ccc23)Cc2cccs2)nc(Cl)n1`: the GI50 in the experiment on OVCAR-3 ovarian was 6.43 µM; with A549 NSCLC, 7.11 µM; in the experiment with DU-145 prostate, 7.9 µM; with MOLT-4 leukemia it was 2.72 µM; with SNB-19 CNS, 7.58 µM; in the experiment with SF-268 CNS, 10.5 µM. Moreover, the GI50 in the experiment on HOP-62 NSCLC is 11.8 µM; in the experiment with 786-0 renal, 5.48 µM; in the experiment with SK-MEL-2 melanoma, 12.3 µM. Further, the TGI with OVCAR-3 ovarian was 21.4 µM; in the experiment with A549 NSCLC it was 23.1 µM; in the experiment with DU-145 prostate it was 23.1 µM; with MOLT-4 leukemia, 22.9 µM; in the experiment on SNB-19 CNS, 25.4 µM; in the experiment with SF-268 CNS, 29.7 µM. Also, the TGI stood at 29.6 µM in the experiment on HOP-62 NSCLC, 20.6 µM with 786-0 renal and 29.6 µM with SK-MEL-2 melanoma.
Turning to `CNC1=C(C)C(=O)C(C)=C(C(C)(C)CC(=O)n2cc(F)c(=O)[nH]c2=O)C1=O`, the TGI in the experiment with OVCAR-3 ovarian is greater than 100 µM; in the experiment on A549 NSCLC, greater than 100 µM; with MOLT-4 leukemia it was greater than 100 µM; in the experiment with SNB-19 CNS, greater than 100 µM; in the experiment on SF-268 CNS it was greater than 100 µM; in the experiment with HOP-62 NSCLC it was greater than 53.8 µM. The TGI in the experiment with 786-0 renal and with SK-MEL-2 melanoma was greater than 100 µM each time.
In the case of `COc1cc2c(cc1OCCCCCCNC(=O)c1cc3ccccc3[nH]1)N=CC1CCCN1C2=O` (configuration not stated), the GI50 is 6.17 µM with OVCAR-3 ovarian; 39 µM in the experiment with A549 NSCLC; 21.6 µM in the experiment with DU-145 prostate; 31.6 µM in the experiment on MOLT-4 leukemia; 63.1 µM in the experiment with SNB-19 CNS; 6.8 µM in the experiment with SF-268 CNS. The GI50 is 50.2 µM in the experiment on HOP-62 NSCLC and greater than 100 µM with 786-0 renal. The TGI in the experiment with OVCAR-3 ovarian was greater than 100 µM; in the experiment with A549 NSCLC it was greater than 100 µM; with DU-145 prostate, 72.1 µM; in the experiment with MOLT-4 leukemia, greater than 100 µM; in the experiment with SNB-19 CNS it was greater than 100 µM; with SF-268 CNS, 26 µM. Further, the TGI in the experiment on HOP-62 NSCLC and in the experiment on 786-0 renal was greater than 100 µM in each case.
`NNC(=O)CC(=O)Nc1ccccc1F`: the TGI with OVCAR-3 ovarian, in the experiment on A549 NSCLC, in the experiment with MOLT-4 leukemia, in the experiment on SNB-19 CNS, in the experiment on SF-268 CNS and with HOP-62 NSCLC was greater than 100 µM in each case. Moreover, in the experiment with 786-0 renal, the TGI was greater than 100 µM.
For the compound `OCCc1cnco1`, the TGI with OVCAR-3 ovarian, in the experiment on A549 NSCLC, in the experiment on MOLT-4 leukemia, in the experiment on SNB-19 CNS, with SF-268 CNS and in the experiment with HOP-62 NSCLC was greater than 100 µM in each case. This compound yielded a TGI with 786-0 renal greater than 100 µM.
As to `C(=C1\CCC/C(=C/c2ccccc2)C1=NNc1ccccc1)/c1ccccc1`, the TGI with OVCAR-3 ovarian, in the experiment on A549 NSCLC, in the experiment with MOLT-4 leukemia, with SNB-19 CNS, in the experiment on SF-268 CNS and with HOP-62 NSCLC was greater than 100 µM each time. Moreover, the TGI with 786-0 renal and in the experiment on SK-MEL-2 melanoma was greater than 100 µM each time.
For `CSc1nc(Cl)c(Br)c(Nc2c[nH]c(=O)[nH]c2=O)n1`, the TGI was 40.7 µM in the experiment with OVCAR-3 ovarian; 89.5 µM in the experiment with A549 NSCLC; 49.9 µM in the experiment on DU-145 prostate; 43.6 µM in the experiment with MOLT-4 leukemia; 44.9 µM in the experiment on SNB-19 CNS; 53.5 µM with HOP-62 NSCLC. Besides, the TGI in the experiment with 786-0 renal is 27.1 µM; in the experiment on SK-MEL-2 melanoma it was 44.4 µM.
For the compound `COc1cc(C/C=C/c2ccccc2)c(OC)cc1O`, the TGI with OVCAR-3 ovarian was 51.1 µM; in the experiment with A549 NSCLC, greater than 100 µM; in the experiment on DU-145 prostate, 37.3 µM; with MOLT-4 leukemia, 52.8 µM; with SNB-19 CNS it was greater than 100 µM; in the experiment on SF-268 CNS it was 59.4 µM. Moreover, the TGI with 786-0 renal came to 27.7 µM; with SK-MEL-2 melanoma, 52.3 µM.
Consider `COc1cc2c(c3oc(-c4ccc5c(c4)OCO5)c(O)c(=O)c13)CCC(C)(C)O2`, for which the TGI in the experiment on OVCAR-3 ovarian, in the experiment on A549 NSCLC, in the experiment on MOLT-4 leukemia, with SNB-19 CNS, in the experiment on 786-0 renal and in the experiment on SK-MEL-2 melanoma was greater than 100 µM in each case.
In the case of `O=C(O)c1cn(C2CC2)c2cc(N3CCN(S(=O)(=O)c4ccc(Cl)c(Cl)c4)CC3)c(F)cc2c1=O`, the GI50 in the experiment with OVCAR-3 ovarian is 3.9 µM; in the experiment on A549 NSCLC, 3.08 µM; with DU-145 prostate, 4.31 µM; with MOLT-4 leukemia, 4 µM; in the experiment on SNB-19 CNS, 3.25 µM; in the experiment on SF-268 CNS, 4.77 µM. Further, the GI50 in the experiment with HOP-62 NSCLC was 4.77 µM; with 786-0 renal, 4.02 µM. Besides, the TGI with OVCAR-3 ovarian is 44 µM; in the experiment with A549 NSCLC, greater than 100 µM; in the experiment on DU-145 prostate, greater than 100 µM; in the experiment with MOLT-4 leukemia it was greater than 100 µM; in the experiment with SNB-19 CNS, greater than 100 µM; in the experiment on SF-268 CNS it was greater than 100 µM. Also, the TGI in the experiment with HOP-62 NSCLC and in the experiment on 786-0 renal was greater than 100 µM each time.
`Cn1cc2ccccc2c1-c1nc(F)nc(Oc2ccc3c(c2)CC[C@@H]2C3CC[C@]3(C)C(O)CCC23)n1` (some centres not stated): the TGI turned out to be 31.8 µM in the experiment on OVCAR-3 ovarian; 48.9 µM in the experiment on A549 NSCLC; 65.7 µM with MOLT-4 leukemia; 34.7 µM with SNB-19 CNS; 35.1 µM in the experiment on SF-268 CNS; 33 µM in the experiment on HOP-62 NSCLC. In addition, the TGI in the experiment on 786-0 renal was 30.5 µM; with SK-MEL-2 melanoma, 36.1 µM.
As for `COc1ccc2oc(-c3ccncc3)cc(=O)c2c1`, the TGI with OVCAR-3 ovarian, with MOLT-4 leukemia, with SNB-19 CNS, in the experiment on SF-268 CNS, with HOP-62 NSCLC and with 786-0 renal was greater than 100 µM each time. In the experiment on SK-MEL-2 melanoma, this compound came in with a TGI greater than 100 µM.
Regarding `O=C1C2Cc3ccccc3CN2C(=O)N1CN1CCN(CN2C(=O)C3Cc4ccccc4CN3C2=O)CC1` (configuration not stated), the TGI with OVCAR-3 ovarian, with A549 NSCLC, in the experiment on MOLT-4 leukemia, in the experiment on SNB-19 CNS, in the experiment with SF-268 CNS and in the experiment with HOP-62 NSCLC was greater than 100 µM in each case. Also, the TGI with 786-0 renal and in the experiment on SK-MEL-2 melanoma was greater than 100 µM each time.

Source of the values: PubChem BioAssay (NCI).
